The test system of data set [1] is Glomerella lagenarium (Colletotrichum lagenarium). Description: Fungicidal activity against Glomerella lagenarium (Colletotrichum lagenarium), liquid culture / cucumber / preventative (anthracnose). The class given is cell-based. The following applies: Colletotrichum orbiculare, liquid culture (PDB), growth inhibition measured photometrically 3-4 days after application, compared to untreated control. As for the experimental part: Mycelia fragments or conidia suspensions of a fungus, prepared either freshly from liquid cultures of the fungus or from cryogenic storage, are directly mixed into nutrient broth. DMSO solutions of the test compound (max. 10 mg/ml) is diluted with 0.025% Tween20 by a factor of 50 and 10 μl of this solution is pipetted into a microtiter plate (96-well format). The nutrient broth containing the fungal spores/mycelia fragments is then added to give an end concentration of the tested compound. The test plates are incubated in the dark at 24° C. and 96% relative humidity. The inhibition of fungal growth is determined photometrically after 2 to 7 days, depending on the pathosystem, and percent antifungal activity relative to the untreated check is calculated. Conidia of the fungus from cryogenic storage are directly mixed into nutrient broth (PDB potato dextrose broth). After placing a (DMSO) solution of test compound into a microtiter plate (96-well format), the nutrient broth containing the fungal spores is added. The test plates are incubated at 24° C. and the inhibition of growth is measured photometrically 3-4 days after application.

A value given as a limit tells only on which side of the number the result lay.

The term melting point denotes the temperature of the solid-liquid transition. In turn, `FC(F)(F)c1nc(-c2ccc(-c3nc(-c4cccnc4)cs3)cc2)no1` [Compound C-12, 3-[4-[4-(3-pyridyl)thiazol-2-yl]phenyl]-5-(trifluoromethyl)-1,2,4-oxadiazole] registered a melting point of 142 to 143 °C.

Usually inhibition of growth stands for the change of the read-out against control, counted positive when it falls. A lower inhibition of growth goes with a weak effect. On to `FC(F)(F)c1nc(-c2ccc(-c3ccnc(N4CCOCC4)c3)cc2)no1` [Compound D-25, 4-[4-[4-[5-(trifluoromethyl)-1,2,4-oxadiazol-3-yl]phenyl]-2-pyridyl]morpholine], for which the melting point is 95 to 100 °C. Besides, the inhibition of growth at 20 ppm in data set [1] is at least 80%.

On to `CCNc1cccc(-c2ccc(-c3noc(C(F)(F)F)n3)cc2)n1` [Compound D-8, N-ethyl-6-[4-[5-(trifluoromethyl)-1,2,4-oxadiazol-3-yl]phenyl]pyridin-2-amine], for which the melting point lay in the range of 120 to 125 °C. The inhibition of growth at 20 ppm in data set [1] was at least 80%.

The compound `O=C(Nc1cc(-c2ccc(-c3noc(C(F)(F)F)n3)cc2)ccn1)C1CC1` [Compound D-17, N-[4-[4-(5-(triftuoromethyl)-1,2,4-oxadiazol-3-yl]phenyl]-2-pyridyl]cyclopropane carboxamide] returned a melting point of 140 to 145 °C.

In data set [1], `FC(F)(F)c1nc(-c2ccc(C3CC(c4ccncc4)=NO3)cc2)no1` (stereo not shown) [Compound A-49, 3-[4-[3-(4-pyridyl)-4,5-dihydroisoxazol-5-yl]phenyl]-5-(trifluoromethyl)-1,2,4-oxadiazole] gave an inhibition of growth at 20 ppm of at least 80%.

`CCNC(=O)Nc1cccc(-c2ccc(-c3noc(C(F)(F)F)n3)cc2)n1` [Compound D-1, 1-ethyl-3-[6-[4-[5-(trifluoromethyl)-1,2,4-oxadiazol-3-yl]phenyl]-2-pyridyl]urea] had a melting point of 200 to 205 °C.

`FC(F)(F)c1nc(-c2ccc(-c3ccc(NC4CC4)nc3)cc2)no1` [Compound D-21, N-cyclopropyl-5-[4-[5-(trifluoromethyl)-1,2,4-oxadiazol-3-yl]phenyl]pyridin-2-amine] gave a melting point of 135 to 140 °C.

The compound `Fc1cccc(-c2ccc(-c3noc(C(F)(F)F)n3)cc2)n1` [Compound D-5, 3-[4-(6-fluoro-2-pyridyl)phenyl]-5-(trifluoromethyl)-1,2,4-oxadiazole] yielded a melting point of 75 to 80 °C. In addition, the inhibition of growth at 20 ppm in data set [1] is at least 80%.

With `COc1ccccc1C1CC(c2ccc(-c3noc(C(F)(F)F)n3)cc2)=NO1` (stereo not shown) [Compound A-48, 3-[4-[5-(2-methoxyphenyl)-4,5-dihydroisoxazol-3-yl]phenyl]-5-(trifluoromethyl)-1,2,4-oxadiazole], in data set [1], the inhibition of growth at 20 ppm was at least 80%.

Compound `FC(F)(F)c1nc(-c2ccc(-c3cccc(Cl)n3)cc2)no1` [Compound D-22, 3-[4-(6-chloro-2-pyridyl)phenyl]-5-(trifluoromethyl)-1,2,4-oxadiazole] gave a melting point of 115 to 120 °C.

`O=C(C1CC1)N(C(=O)C1CC1)c1cc(-c2ccc(-c3noc(C(F)(F)F)n3)cc2)ccn1` [Compound D-16, N-(cyclopropanecarbonyl)-N-[4-[4-[5-(trifluoromethyl)-1,2,4-oxadiazol-3-yl]phenyl]-2-pyridyl]cyclopropane carboxamide] gave a melting point of 120 to 125 °C.

Regarding `FC(F)(F)c1nc(-c2ccc(-c3cccc(N4CCOCC4)n3)cc2)no1` [Compound D-24, 4-[6-[4-[5-(trifluoromethyl)-1,2,4-oxadiazol-3-yl]phenyl]-2-pyridyl]morpholine], the melting point was in the range of 100 to 105 °C.

The compound `FC(F)(F)C1=NOC(c2ccc(-c3noc(C(F)(F)F)n3)cc2)C1` (stereo not shown) [Compound A-14, 5-(trifluoromethyl)-3-[4-[3-(trifluoromethyl)-4,5-dihydroisoxazol-5-yl]phenyl]-1,2,4-oxadiazole] gave a melting point of 65 to 69 °C. The same compound yielded an inhibition of growth at 20 ppm in data set [1] of at least 80%.

`O=C(C1CC1)N(C(=O)C1CC1)c1ccc(-c2ccc(-c3noc(C(F)(F)F)n3)cc2)cn1` [Compound D-10, N-(cyclopropanecarbonyl)-N-[5-[4-[5-(trifluoromethyl)-1,2,4-oxadiazol-3-yl]phenyl]-2-pyridyl]cyclopropane carboxamide]: the melting point lay in the range of 150 to 155 °C.

As to `CCNC(=O)Nc1ccc(-c2ccc(-c3noc(C(F)(F)F)n3)cc2)cn1` [Compound D-2, 1-ethyl-3-[5-[4-[5-(trifluoromethyl)-1,2,4-oxadiazol-3-yl]phenyl]-2-pyridyl]urea], the melting point is 190 to 195 °C.

The compound `FC(F)(F)c1nc(-c2ccc(-c3ccc(Cl)nc3)cc2)no1` [Compound D-27, 3-[4-(6-chloro-3-pyridyl)phenyl]-5-(trifluoromethyl)-1,2,4-oxadiazole] came in with a melting point of 140 to 145 °C.

For `FC(F)(F)c1nc(-c2ccc(C3CC(C4CCCCC4)=NO3)cc2)no1` (stereo not shown) [Compound A-7, 3-[4-(3-cyclohexyl-4,5-dihydroisoxazol-5-yl)phenyl]-5-(trifluoromethyl)-1,2,4-oxadiazole], the melting point was in the range of 79 to 82 °C. This compound also gave an inhibition of growth at 20 ppm in data set [1] of at least 80%.

Consider `FC(F)(F)c1nc(-c2ccc(-c3ccc(N4CCOCC4)nc3)cc2)no1` [Compound D-23, 4-[5-[4-[5-(trifluoromethyl)-1,2,4-oxadiazol-3-yl]phenyl]-2-pyridyl]morpholine], for which the melting point lay in the range of 150 to 155 °C.

Consider `FC(F)(F)c1nc(-c2ccc(N3CCCCO3)cc2)no1` [Compound B-1, 2-[4-[5-(trifluoromethyl)-1,2,4-oxadiazol-3-yl]phenyl]oxazinane], for which the melting point is 94 to 96 °C.

Turning to `FC(F)(F)c1nc(-c2ccc(C3CC(c4ccccc4)=NO3)cc2)no1` (stereo not shown) [Compound A-50, 3-[4-(3-phenyl-4,5-dihydroisoxazol-5-yl)phenyl]-5-(trifluoromethyl)-1,2,4-oxadiazole], the melting point is 139 to 142 °C.

`O=C(Nc1cccc(-c2ccc(-c3noc(C(F)(F)F)n3)cc2)n1)C(F)(F)F` [Compound D-4, 2,2,2-trifluoro-N-[6-[4-[5-(trifluoromethyl)-1,2,4-oxadiazol-3-yl]phenyl]-2-pyridyl]acetamide]: the melting point was in the range of 125 to 130 °C. The compound further displayed an inhibition of growth at 20 ppm in data set [1] of at least 80%.

Compound `CCNc1cc(-c2ccc(-c3noc(C(F)(F)F)n3)cc2)ccn1` [Compound D-9, N-ethyl-4-[4-[5-(trifluoromethyl)-1,2,4-oxadiazol-3-yl]phenyl]pyridin-2-amine] came in with a melting point of 130 to 135 °C.

As to `COC(=O)C1(c2ccc(-c3noc(C(F)(F)F)n3)cc2)C(C)=C(C#N)C(=O)N1C` (stereo not shown) [Compound A-41, methyl 4-cyano-1,3-dimethyl-5-oxo-2-[4-[5-(trifluoromethyl)-1,2,4-oxadiazol-3-yl]phenyl]pyrrole-2-carboxylate], the inhibition of growth at 20 ppm in data set [1] was at least 80%.

For the compound `Nc1cc(-c2ccc(-c3noc(C(F)(F)F)n3)cc2)ccn1` [Compound D-18, 4-[4-[5-(trifluoromethyl)-1,2,4-oxadiazol-3-yl]phenyl]pyridin-2-amine], the melting point is 195 to 200 °C.

For `CCNc1ccc(-c2ccc(-c3noc(C(F)(F)F)n3)cc2)cn1` [Compound D-20, N-ethyl-5-[4-[5-(trifluoromethyl)-1,2,4-oxadiazol-3-yl]phenyl]pyridin-2-amine], the melting point lay within 120 to 125 °C.

In the case of `FC(F)(F)c1nc(-c2ccc(-c3cc(C4CC4)no3)cc2)no1` [Compound C-10, 3-[4-(3-cyclopropylisoxazol-5-yl)phenyl]-5-(trifluoromethyl)-1,2,4-oxadiazole], the melting point was 143 to 146 °C.

On to `O=C(Nc1ccc(-c2ccc(-c3noc(C(F)(F)F)n3)cc2)cn1)C1CC1` [Compound D-11, N-[5-[4-[5-(trifluoromethyl)-1,2,4-oxadiazol-3-yl]phenyl]-2-pyridyl]cyclopropane carboxamide], for which the melting point was 175 to 180 °C.

The compound `CCNC(=O)Nc1cc(-c2ccc(-c3noc(C(F)(F)F)n3)cc2)ccn1` [Compound D-3, 1-ethyl-3-[4-[4-[5-(trifluoromethyl)-1,2,4-oxadiazol-3-yl]phenyl]-2-pyridyl]urea] came in with a melting point of 180 to 185 °C.

`O=C(Nc1cccc(-c2ccc(-c3noc(C(F)(F)F)n3)cc2)n1)C1CC1` [Compound D-14, N-[6-[4-[5-(trifluoromethyl)-1,2,4-oxadiazol-3-yl]phenyl]-2-pyridyl]cyclopropane carboxamide] displayed a melting point of 125 to 130 °C.

`O=C(Nc1ccc(-c2ccc(-c3noc(C(F)(F)F)n3)cc2)cn1)C(F)(F)F` [Compound D-13, 2,2,2-trifluoro-N-[5-[4-[5-(trifluoromethyl)-1,2,4-oxadiazol-3-yl]phenyl]-2-pyridyl]acetamide] returned a melting point of 135 to 140 °C. The inhibition of growth at 20 ppm in data set [1] was at least 80%.

(Values after patent US11083196B2, “Microbiocidal oxadiazole derivatives” (SYNGENTA PARTICIPATIONS AG, priority 2016, dated 2021).)
